# Measured values published in ChEMBL document CHEMBL1128584, “Prediction of drug binding affinities by comparative binding energy analysis” (J Med Chem, 1995).
# Molecular target: T1, Phospholipase A2, membrane associated (Homo sapiens) (UniProt P14555)
# T1 sequence (whole entry): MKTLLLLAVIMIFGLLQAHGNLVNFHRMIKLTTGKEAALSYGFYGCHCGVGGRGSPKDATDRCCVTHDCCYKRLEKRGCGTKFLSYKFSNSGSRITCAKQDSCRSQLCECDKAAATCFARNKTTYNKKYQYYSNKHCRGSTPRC
# Experiment: Inhibitory activity against human synovial fluid phospholipase A2 (HSF-PLA2)
# Parameters: concentration or dose not given beside the values
# Details: concentration not given here
row,SMILES,inhibition [%]
1,CCCCCCCCCCC(=O)NC(CCCCCC)COP(=O)(O)OCCN (stereo not given),28
2,CCCCCCCCCCCC(=O)NC(CCCCCC)COP(=O)(O)OCC(N)C(=O)O (stereo not given),31
3,CCCCCCCCCCS(=O)(=O)N[C@H](CCCCCC)COP(=O)(O)OCCO,40
4,CCCCCCCCCCCC(=O)NC(CCCCCC)COP(=O)(O)OCCO (stereo not given),61
5,CCCCCCCCOCC(COP(=O)(O)OCC[N+](C)(C)C)OP(=O)(O)CCCCCCC (stereo not given),9
6,CCCCCCCCCCS(=O)(=O)CC(CCCCCC)COP(=O)(O)OCCOCc1ccccc1 (stereo in doubt; form 1),29
7,CCCCCCCCCCS(=O)(=O)NC(CCCCCC)COP(=O)(O)OCCN (stereo not given),4
8,CCCCCCCCCCS(=O)(=O)NC(CCCCCC)COP(=O)(O)OCCCC (stereo not given),0
9,CCCCCCCCCCCC(=O)NC(CCCCCC)COP(=O)(O)CCCC (stereo not given),45
10,CCCCCCCCCCS(=O)(=O)N[C@H](CCCCCC)COP(=O)(O)OCCOCc1ccccc1 (stereo in doubt; form 2),46
11,CCCCCCCCCCS(=O)(=O)NC(CCCCCC)COP(=O)(O)CCCC (stereo not given),30

# The remaining lines, values ahead:
row,inhibition [%],SMILES
1,80,CCCCCCCCCCCC(=O)NC(CCCCCC)COP(=O)(O)OCCCC (stereo not given)
2,44,CCCCCCCCCCS(=O)(=O)NC(CCCCCC)COP(=O)(O)OCCO (stereo in doubt; form 2)
3,6,CCCCCCCCCCCC(=O)NC(CCCCCC)COP(=O)(O)OCCOCc1ccccc1 (stereo not given)
4,36,CCCCCCCCCCS(=O)(=O)NC(CCCCCC)COP(=O)(O)OCCOCc1ccccc1 (stereo in doubt; form 2)
5,33,CCCCCCCCOCC(COP(=O)(O)OCCN)OP(=O)(O)CCCCCCC (stereo not given)
6,49,CCCCCCCCCCS(=O)(=O)NC(CCCCCC)COP(=O)(O)OCCO (stereo in doubt; form 1)
7,12,CCCCCCCCCCS(=O)(=O)NC(CCCCCC)COP(=O)(O)OCCOCc1ccccc1 (stereo in doubt; form 1)
8,28,CCCCCCCCCCS(=O)(=O)NC(CCCCCC)COS(=O)(=O)CCCOCc1ccccc1 (stereo not given)
9,74,CCCCCCCCCCS(=O)(=O)N[C@H](CCCCCC)COP(=O)(O)OCCOCc1ccccc1 (stereo in doubt; form 3)
10,24,CCCCCCCCCCCC(=O)NC(CCCCCC)COP(=O)(CCCC)OC (stereo not given)
11,45,CCCCCCCCCCS(=O)(=O)N[C@H](CCCCCC)COP(=O)(O)OCCOCc1ccccc1 (stereo in doubt; form 1)
12,0,CCCCCCCCCCS(=O)(=O)NC(CCCCCC)COCC(F)(F)F (stereo not given)
13,79,CCCCCCCCCCS(=O)(=O)CC(CCCCCC)COP(=O)(O)OCCOCc1ccccc1 (stereo in doubt; form 2)
14,24,CCCCCCCCCCS(=O)(=O)NC(CCc1ccccc1)COP(=O)(O)OCCOCc1ccccc1 (stereo not given)
